Where two headings read alike, the source gives them in different places.
Assays:
Assay type in all cases: in vivo
[1] = test system: Beet Armyworm (BAW) (Spodoptera exigua); assay: Bioassay on beet armyworm (BAW), 128-well diet tray assay; details: 168 h, read-out: % Mortality BAW 50 μg/cm^2
Experimental: (§1) Certain molecules disclosed in this document were tested against BAW and CEW using procedures described in the following examples. In the reporting of the results, the “BAW & CEW Rating Table” was used (See Table Section).
Bioassays on BAW (Spodoptera exigua)
Bioassays on BAW were conducted using a 128-well diet tray assay. One to five second instar BAW larvae were placed in each well (3 mL) of the diet tray that had been previously filled with 1 mL of artificial diet to which 50 μg/cm^2 of the test compound (dissolved in 50 μL of 90:10 acetone-water mixture) had been applied (to each of eight wells) and then allowed to dry. Trays were covered with a clear self-adhesive cover, and held at 25° C., 14:10 light-dark for five to seven days. Percent mortality was recorded for the larvae in each well; activity in the eight wells was then averaged. The results are indicated in the table entitled “Table: Bio Results” (See Table Section).

[2] = test system: Corn Earworm (CEW) (Helicoverpa zea); assay: Bioassay on corn earworm (CEW), 128-well diet tray assay; details: 168 h, read-out: % Mortality CEW 50 μg/cm^2
Experimental: as §1
Bioassays on CEW (Helicoverpa zea)
Bioassays on CEW were conducted using a 128-well diet tray assay. One to five second instar CEW larvae were placed in each well (3 mL) of the diet tray that had been previously filled with 1 mL of artificial diet to which 50 μg/cm^2 of the test compound (dissolved in 50 μL of 90:10 acetone-water mixture) had been applied (to each of eight wells) and then allowed to dry. Trays were covered with a clear self-adhesive cover, and held at 25° C., 14:10 light-dark for five to seven days. Percent mortality was recorded for the larvae in each well; activity in the eight wells was then averaged. The results are indicated in the table entitled “Table: Bio Results” (See Table Section).

[3] = test system: Green Peach Aphid (GPA) (Myzus persicae); assay: Bioassay on green peach aphid (GPA), foliar spray on cabbage seedlings; details: 72 h, read-out: % Mortality GPA 200 ppm
Experimental: Certain molecules disclosed in this document were tested against GPA using procedures described in the following example. In the reporting of the results, the “GPA Rating Table” was used (See Table Section).
Cabbage seedlings grown in 3-inch pots, with 2-3 small (3-5 cm) true leaves, were used as test substrate. The seedlings were infested with 20-50 GPA (wingless adult and nymph stages) one day prior to chemical application. Four pots with individual seedlings were used for each treatment. Test compounds (2 mg) were dissolved in 2 mL of acetone/methanol (1:1) solvent, forming stock solutions of 1000 ppm test compound. The stock solutions were diluted 5× with 0.025% Tween 20 in H2O to obtain the solution at 200 ppm test compound. A hand-held aspirator-type sprayer was used for spraying a solution to both sides of […] leaves until runoff. Reference plants (solvent check) were sprayed with the diluent only containing 20% by volume of acetone/methanol (1:1) solvent. Treated plants were held in a holding room for three days at approximately 25° C. and ambient relative humidity (RH) prior to grading. Evaluation was conducted by counting the number of live aphids per plant under a microscope. Percent Control was measured by using Abbott's correction formula (W. S. Abbott, “A Method of Computing the Effectiveness of an Insecticide” J. Econ. Entomol. 18 (1925), pp. 265-267) as follows. Corrected % Control=100*(X−Y)/X • where • X=No. of live aphids on solvent check plants and • Y=No. of live aphids on treated plants

[4] = 50 μg/cm^2 on artificial diet, second instar larvae, 25° C., five to seven days, average of eight wells
[5] = 200 ppm foliar spray on cabbage seedlings, graded after three days, Abbott corrected % control

Structure (SMILES)	mortality at 50 µg/cm2 [1] [%]	mortality at 50 µg/cm2 [2] [%]	mortality at 200 ppm ([3]; foliar) [%]	mortality at 50 µg/cm2 [1, 4] [%]	mortality at 50 µg/cm2 [2, 4] [%]	mortality at 200 ppm [3, 5] [%]
CC(C)(C)c1ccccc1OC(=O)NC1CC1c1ccc(-c2ncn(-c3ccc(OC(F)(F)F)cc3)n2)cc1 (stereo not drawn) [Compound 24, 2-tert-Butylphenyl 2-(4-(1-(4-(trifluoromethoxy)phenyl)-1H-1,2,4-triazol-3-yl)phenyl)-cyclopropylcarbamate]	50 to 100	0	0 to 80			
O=C(NC1CC1c1ccc(-c2ncn(-c3ccc(OC(F)(F)F)cc3)n2)cc1)Oc1ccccc1 (stereo not drawn) [Compound 21, Phenyl 2-(4-(1-(4-(trifluoromethoxy)phenyl)-1H-1,2,4-triazol-3-yl)phenyl)cyclopropyl-carbamate]	50 to 100	50 to 100	0			
COc1cc(C)c(NC(=S)NC2CC2c2ccc(-c3ncn(-c4ccc(OC(F)(F)F)cc4)n3)cc2)c(C)n1 (stereo not drawn) [Compound 14, 1-(6-Methoxy-2,4-dimethylpyridin-3-yl)-3-(2-(4-(1-(4-(trifluoromethoxy)-phenyl)-1H-1,2,4-triazol-3-yl)phenyl)cyclopropyl)thiourea]				50 to 100	50 to 100	0 to 80
Cc1ccc(NC(=S)NC2CC2c2ccc(-c3ncn(-c4ccc(OC(F)(F)F)cc4)n3)cc2)c(C)c1 (stereo not drawn) [Compound 11, 1-(2,4-Dimethylphenyl)-3-(2-(4-(1-(4-(trifluoromethoxy)phenyl)-1H-1,2,4-triazol-3-yl)phenyl)cyclopropyl)thiourea]				50 to 100	50 to 100	0 to 80
Cc1cc(C)c(OC(=O)NC2CC2c2ccc(-c3ncn(-c4ccc(OC(F)(F)F)cc4)n3)cc2)c(C)c1 (stereo not drawn) [Compound 26, Mesityl 2-(4-(1-(4-(trifluoromethoxy)phenyl)-1H-1,2,4-triazol-3-yl)phenyl)cyclopropyl-carbamate]	50 to 100	0 to 50	0			
COc1ccc(NC(=S)NC2CC2c2ccc(-c3ncn(-c4ccc(OC(F)(F)F)cc4)n3)cc2)c(C)c1 (stereo not drawn) [Compound 3, 1-(4-Methoxy-2-methylphenyl)-3-(2-{4-[1-(4-trifluoromethoxyphenyl)-1H-[1,2,4]triazol-3-yl]phenyl}cyclopropyl)thiourea]				50 to 100	50 to 100	0 to 80
FC(F)(F)Oc1ccc(-n2cnc(-c3ccc(C4CC4NC(=S)Nc4ccc(C(F)(F)F)cc4)cc3)n2)cc1 (stereo not drawn) [Compound 8, 1-(2-{4-[1-(4-Trifluoromethoxyphenyl)-1H-[1,2,4]triazol-3-yl]phenyl}-cyclopropyl)-3-(4-trifluoromethylphenyl)thiourea]				50 to 100	50 to 100	0 to 80
O=C(NC1CC1c1ccc(-c2ncn(-c3ccc(OC(F)(F)F)cc3)n2)cc1)Oc1ccccc1C(F)(F)F (stereo not drawn) [Compound 25, 2-(Trifluoromethyl)phenyl 2-(4-(1-(4-(trifluoromethoxy)phenyl)-1H-1,2,4-triazol-3-yl)-phenyl)cyclopropylcarbamate]	0	0	0 to 80			
Cc1cc(F)ccc1OC(=O)NC1CC1c1ccc(-c2ncn(-c3ccc(OC(F)(F)F)cc3)n2)cc1 (stereo not drawn) [Compound 22, 4-Fluoro-2-methylphenyl 2-(4-(1-(4-(trifluoromethoxy)phenyl)-1H-1,2,4-triazol-3-yl)-phenyl)cyclopropylcarbamate]	50 to 100	50 to 100	0			
CN(C)c1ccc(NC(=S)NC2CC2c2ccc(-c3ncn(-c4ccc(OC(F)(F)F)cc4)n3)cc2)cc1 (stereo not drawn) [Compound 7, 1-(4-Dimethylaminophenyl)-3-(2-{4-[1-(4-trifluoromethoxyphenyl)-1H-[1,2,4]triazol-3-yl]phenyl}cyclopropyl)thiourea]				50 to 100	50 to 100	0
CCc1cccc(CC)c1NC(=S)NC1CC1c1ccc(-c2ncn(-c3ccc(OC(F)(F)F)cc3)n2)cc1 (stereo not drawn) [Compound 6, 1-(2,6-Diethylphenyl)-3-(2-{4-[1-(4-trifluoromethoxyphenyl)-1H-[1,2,4]triazol-3-yl]phenyl}cyclopropyl)thiourea]				50 to 100	50 to 100	0 to 80
COC(=O)NC1CC1c1ccc(-c2ncn(-c3ccc(OC(F)(F)F)cc3)n2)cc1 (stereo not drawn) [Compound 18, Methyl 2-(4-(1-(4-(trifluoromethoxy)phenyl)-1H-1,2,4-triazol-3-yl)phenyl)cyclopropyl-carbamate]	0	0 to 50	0			

— US9107410B2, “Pesticidal compositions and processes related thereto” (Dow AgroSciences LLC, priority 2011, dated 2015)
